Measured values taken from patent US20250326732A1 (Pretzel Therapeutics, Inc., priority 2021, published 2025).

Target: POLRMT (Homo sapiens (Human), UniProt O00411)
Assay: homogeneous TR-FRET assay of mitochondrial transcription (inhibition of POLRMT)
Format: biochemical
Settings: 7.5 nM POLRMT, 15 nM TFB2M, 30 nM TFAM, 0.5 nM DNA template, 500 μM NTPs, 37° C. for 60 minutes
Description: The ability of some compounds of the present invention to inhibit POLRMT were determined in a homogeneous TR-FRET Assay using high-throughput screening in a 384-well plate format. […] Detection of the product is facilitated by hybridization of two DNA-oligonucleotide probes to specific and adjacent sequences within the RNA product sequence. Upon annealing of the probes, two fluorophores are coupled directly to an acceptor nucleotide probe (ATTO647, 5′), or introduced via a coupled streptavidin with a biotinylated donor nucleotide probe (Europium cryptate) that is brought into sufficient proximity to serve as a fluorescence-donor-acceptor pair. Thus, a FRET signal at 665 nm is generated upon excitation at 340 nm.
The DNA template is restriction linearized proximal to the promotor 3′-end (pUC-LSP). […] No nucleotide triphosphate mix is added to negative control samples. Microplates with compounds to be tested in the assay are prepared from 10 mM compound stocks in 100% DMSO, equal amounts of DMSO without any compound are added to positive control and negative control samples.
During the incubation, a mix of the detection reagents is prepared in a buffer such that the enzymatic reaction is terminated due to chelating of Mg-ions and increased ionic strength, containing 50 mM Tris-HCl (pH 7.5), 700 mM NaCl, 20 mM EDTA, and 0.01% (w/v) Tween-20. Europium-streptavidin is pre-incubated with a 200-fold molar excess of a random sequence oligonucleotide to block unspecific binding of oligo, for two hours at ambient temperature in the dark. Afterwards, the blocked Europium-streptavidin is kept on ice until use.
At the end of the enzymatic reaction time, 5 μL detection oligo mix in the detection buffer is added, and assay plates are mixed and kept at ambient temperature for one hour, protected from light. The concentration of the Acceptor nucleotide oligo (e.g., ATTO647N-5′-[…]-3′) and Donor nucleotide oligo (e.g., bio-5′-[…](-bio)[…]-bio-3′) in each assay well is 1 nM, and 3 nM, respectively.
After incubation with oligo mix, 5 μL of pre-blocked Europium-streptavidin reagent is dispensed to each assay well, assay plates are again mixed and kept at ambient temperature for one hour, protected from light.
The generated signal is measured with BMG Pherastar microtiter plate reader with a TRF light unit, using excitation at 340 nm, an integration time of 200 μs, and a delay time of 100 μs, before detection at 620 nm and 665 nm. The ratio of donor- and acceptor-fluorescence is used as a measure of the generated transcript product (i.e. enzymatic activity).

POLRMT, sequence (O00411 42-1230): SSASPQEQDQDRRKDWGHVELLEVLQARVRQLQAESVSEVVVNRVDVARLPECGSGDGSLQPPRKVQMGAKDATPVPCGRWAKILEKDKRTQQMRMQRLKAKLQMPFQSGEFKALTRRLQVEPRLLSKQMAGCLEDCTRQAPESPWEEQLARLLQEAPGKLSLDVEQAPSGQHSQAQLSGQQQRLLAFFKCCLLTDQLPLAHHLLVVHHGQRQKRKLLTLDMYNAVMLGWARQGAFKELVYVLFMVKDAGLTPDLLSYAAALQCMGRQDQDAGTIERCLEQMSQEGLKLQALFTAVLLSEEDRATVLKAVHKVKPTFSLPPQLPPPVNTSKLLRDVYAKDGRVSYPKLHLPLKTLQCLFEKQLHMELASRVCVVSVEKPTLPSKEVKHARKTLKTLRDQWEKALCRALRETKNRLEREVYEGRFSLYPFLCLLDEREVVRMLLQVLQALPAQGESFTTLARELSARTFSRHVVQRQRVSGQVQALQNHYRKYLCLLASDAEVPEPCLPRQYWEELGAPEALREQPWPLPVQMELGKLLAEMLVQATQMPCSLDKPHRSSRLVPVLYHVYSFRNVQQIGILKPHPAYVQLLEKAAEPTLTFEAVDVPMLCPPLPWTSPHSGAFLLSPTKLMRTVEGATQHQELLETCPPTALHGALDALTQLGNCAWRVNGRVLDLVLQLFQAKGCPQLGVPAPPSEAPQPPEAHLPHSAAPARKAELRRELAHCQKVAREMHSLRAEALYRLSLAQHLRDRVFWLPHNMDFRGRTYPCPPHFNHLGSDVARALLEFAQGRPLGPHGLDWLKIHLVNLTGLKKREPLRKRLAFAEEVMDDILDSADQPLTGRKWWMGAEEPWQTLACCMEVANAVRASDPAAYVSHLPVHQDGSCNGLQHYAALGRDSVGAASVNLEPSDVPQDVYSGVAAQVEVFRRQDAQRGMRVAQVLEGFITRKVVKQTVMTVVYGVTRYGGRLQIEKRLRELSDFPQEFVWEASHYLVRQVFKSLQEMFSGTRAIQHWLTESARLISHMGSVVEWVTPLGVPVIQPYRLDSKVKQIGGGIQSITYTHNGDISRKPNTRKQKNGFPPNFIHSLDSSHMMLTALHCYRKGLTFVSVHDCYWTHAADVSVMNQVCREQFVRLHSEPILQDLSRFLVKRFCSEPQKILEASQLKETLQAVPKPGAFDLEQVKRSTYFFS

`Cc1ccccc1-c1cc(=O)oc2cc(CC(C)C(=O)N3CCC[C@H](S(N)(=O)=O)C3)ccc12` (single isomer, unassigned) [Example 97] and `Cc1ccccc1-c1cc(=O)oc2cc(CC(C)C(=O)N3CC[C@H](C(=O)O)C3)ccc12` (single isomer, unassigned) [Example 99] are within 1.5-fold of each other in IC50: 0.3 µM for the first, 0.4 µM for the second.

Going from `Cc1ccccc1-c1cc(=O)oc2cc(CC(C)C(=O)N3CCC[C@H](S(N)(=O)=O)C3)ccc12` (single isomer, unassigned) [Example 98] to `Cc1ccccc1-c1cc(=O)oc2cc(CC(C)C(=O)N3CC[C@H](C(=O)O)C3)ccc12` (single isomer, unassigned) [Example 100], the IC50 rises from 14 µM to 21 µM (1.5-fold).

Going from `COC[C@@H](C(=O)N1CCC[C@H](C(=O)O)C1)N(C)c1ccc2c(-c3ccccc3C)cc(=O)oc2c1` (single isomer, unassigned) [Example 120] to `CC(=O)NC1CCCN(C(=O)c2ccc3c(-c4ccccc4C)cc(=O)oc3c2)C1` (single isomer, unassigned) [Example 175, N-(1-(2-oxo-4-(o-tolyl)-2H-chromene-7-carbonyl)piperidin-3-yl)acetamide], the IC50 rises from 21 µM to greater than 100 µM.

First: COC[C@@H](C(=O)N1CCC[C@H](C(=O)O)C1)N(C)c1ccc2c(-c3ccccc3C)cc(=O)oc2c1 (single isomer, unassigned) [Example 121]
Second: CC(=O)NC1CCCN(C(=O)c2ccc3c(-c4ccccc4C)cc(=O)oc3c2)C1 (single isomer, unassigned) [Example 176, N-(1-(2-oxo-4-(o-tolyl)-2H-chromene-7-carbonyl)piperidin-3-yl)acetamide]
The IC50 of the first is 250-fold lower: 0.3 µM for the first, 75 µM for the second.

`Cc1ccccc1-c1cc(=O)oc2cc(NCC(C)C(=O)O)ccc12` (single isomer, unassigned) [Example 154-1, 2-methyl-3-((2-oxo-4-(o-tolyl)-2H-chromen-7-yl)amino)propanoic acid] and `Cc1ccccc1-c1cc(=O)oc2cc(NC(C)C(N)=O)ccc12` (single isomer, unassigned) [Example 189, 2-((2-oxo-4-(o-tolyl)-2H-chromen-7-yl)amino)propanamide] are within 1.5-fold of each other in IC50: 1 µM for the first, 0.9 µM for the second.

`Cc1ccccc1-c1cc(=O)oc2cc(N(C)CC(C)C(=O)O)ccc12` (single isomer, unassigned) [Example 154-2] and `Cc1ccccc1-c1cc(=O)oc2cc(NCC(C)C(=O)O)ccc12` (single isomer, unassigned) [Example 155-1, 2-methyl-3-((2-oxo-4-(o-tolyl)-2H-chromen-7-yl)amino)propanoic acid] are the same in IC50: 0.5 µM for the first, 0.5 µM for the second.

First: Cc1ccccc1-c1cc(=O)oc2cc(NC(C)C(N)=O)ccc12 (single isomer, unassigned) [Example 190, 2-((2-oxo-4-(o-tolyl)-2H-chromen-7-yl)amino)propanamide]
Second: CNC(=O)c1ccc2c(-c3ccccc3C)cc(=O)oc2c1 [Example 02, N-methyl-2-oxo-4-(o-tolyl)-2H-chromene-7-carboxamide]
The IC50 of the first is 2.5-fold lower: 0.8 µM for the first, 2 µM for the second. The first is the more potent here.

Compared with `COCC(Cc1ccc2c(-c3ccccc3C)cc(=O)oc2c1)C(N)=O` (single isomer, unassigned) [Example 207, 3-methoxy-2-((2-oxo-4-(o-tolyl)-2H-chromen-7-yl)methyl)propanamide], `COCc1ccc2c(-c3ccccc3C)cc(=O)oc2c1` [Example 10, 7-(methoxymethyl)-4-(o-tolyl)-2H-chromen-2-one] is 42-fold lower in IC50: 17 µM for the first, 0.4 µM for the second.

Compared with `COCC(Cc1ccc2c(-c3ccccc3C)cc(=O)oc2c1)C(N)=O` (single isomer, unassigned) [Example 208, 3-methoxy-2-((2-oxo-4-(o-tolyl)-2H-chromen-7-yl)methyl)propanamide], `Cc1ccccc1-c1cc(=O)oc2cc(CO)ccc12` [Example 09, 7-(hydroxymethyl)-4-(o-tolyl)-2H-chromen-2-one] is 3.3-fold higher in IC50: 3 µM for the first, 10 µM for the second. The first is the more potent here.

First: Cc1ccccc1-c1cc(=O)oc2cc(N(C)C)ccc12 [Example 01, 7-(dimethylamino)-4-(o-tolyl)-2H-chromen-2-one]
Second: Cc1ccc2c(-c3ccc(F)cc3Cl)cc(=O)oc2c1 [Example 03, 4-(2-chloro-4-fluorophenyl)-7-methyl-2H-chromen-2-one]
The IC50 of the first is 48-fold lower: 0.4 µM for the first, 19 µM for the second.

Going from `CNCc1ccc2c(-c3ccc(F)cc3Cl)cc(=O)oc2c1` [Example 04, 4-(2-chloro-4-fluorophenyl)-7-((methylamino)methyl)-2H-chromen-2-one] to `O=c1cc(-c2ccc(F)cc2Cl)c2ccc(CO)cc2o1` [Example 13, 4-(2-chloro-4-fluorophenyl)-7-(hydroxymethyl)-2H-chromen-2-one], the IC50 falls from greater than 100 µM to 10 µM. The second is the more potent here.

First: CN(Cc1ccc2c(-c3ccc(F)cc3Cl)cc(=O)oc2c1)C(=O)N1CCCCC1 [Example 05, N-((4-(2-chloro-4-fluorophenyl)-2-oxo-2H-chromen-7-yl)methyl)-N-methylpiperidine-1-carboxamide]
Second: C[C@@H](Cc1ccc2c(-c3ccc(F)cc3Cl)cc(=O)oc2c1)C(=O)N1CCCCC1 [Example 18, (S)-4-(2-chloro-4-fluorophenyl)-7-(2-methyl-3-oxo-3-(piperidin-1-yl)propyl)-2H-chromen-2-one]
The IC50 of the first is 20-fold higher: 4 µM for the first, 0.2 µM for the second.

Compared with `CN(C)C(=O)N(C)Cc1ccc2c(-c3ccc(F)cc3Cl)cc(=O)oc2c1` [Example 06, 1-((4-(2-chloro-4-fluorophenyl)-2-oxo-2H-chromen-7-yl)methyl)-1,3,3-trimethylurea], `C[C@@H](Cc1ccc2c(-c3ccc(F)cc3Cl)cc(=O)oc2c1)C(=O)N(C)C` [Example 20, (S)-3-(4-(2-chloro-4-fluorophenyl)-2-oxo-2H-chromen-7-yl)-N,N,2-trimethylpropanamide] is 3.8-fold lower in IC50: 3 µM for the first, 0.8 µM for the second.

Compared with `CCOC(=O)[C@H]1CCCN(C(=O)N(C)Cc2ccc3c(-c4ccc(F)cc4Cl)cc(=O)oc3c2)C1` [Example 07, ethyl (S)-1-(((4-(2-chloro-4-fluorophenyl)-2-oxo-2H-chromen-7-yl)methyl)(methyl)carbamoyl)piperidine-3-carboxylate], `CN(Cc1ccc2c(-c3ccc(F)cc3Cl)cc(=O)oc2c1)C(=O)N1CCC[C@H](C(=O)O)C1` [Example 08, (S)-1-(((4-(2-chloro-4-fluorophenyl)-2-oxo-2H-chromen-7-yl)methyl)(methyl)carbamoyl)piperidine-3-carboxylic acid] is 7-fold lower in IC50: 7 µM for the first, 1 µM for the second. The second is the more potent here.

First: Nc1ccc2c(-c3ccc(F)cc3Cl)cc(=O)oc2c1 [Example 11, 7-amino-4-(2-chloro-4-fluorophenyl)-2H-chromen-2-one]
Second: CNc1ccc2c(-c3ccc(F)cc3Cl)cc(=O)oc2c1 [Example 25, 4-(2-chloro-4-fluorophenyl)-7-(methylamino)-2H-chromen-2-one]
The IC50 of the first is 60-fold higher: 24 µM for the first, 0.4 µM for the second. The second is the more potent here.

First: Cc1cc(O)c2c(-c3ccc(F)cc3)cc(=O)oc2c1 [Example 12, 4-(4-fluorophenyl)-5-hydroxy-7-methyl-2H-chromen-2-one]
Second: COCc1ccc2c(-c3ccc(F)cc3Cl)cc(=O)oc2c1 [Example 16, 4-(2-chloro-4-fluorophenyl)-7-(methoxymethyl)-2H-chromen-2-one]
The IC50 of the first is higher: greater than 100 µM for the first, 1 µM for the second.

`CCOC(=O)/C(C)=C/c1ccc2c(-c3ccc(F)cc3Cl)cc(=O)oc2c1` [Example 14, ethyl (E)-3-(4-(2-chloro-4-fluorophenyl)-2-oxo-2H-chromen-7-yl)-2-methylacrylate] and `CCN(C)C(=O)c1ccc2c(-c3ccc(F)cc3Cl)cc(=O)oc2c1` [Example 23, 4-(2-chloro-4-fluorophenyl)-N-ethyl-N-methyl-2-oxo-2H-chromene-7-carboxamide] are within 1.5-fold of each other in IC50: 18 µM for the first, 19 µM for the second.

First: COC(=O)C(C)Cc1ccc2c(-c3ccc(F)cc3Cl)cc(=O)oc2c1 (centres unmarked) [Example 15, methyl 3-(4-(2-chloro-4-fluorophenyl)-2-oxo-2H-chromen-7-yl)-2-methylpropanoate]
Second: C[C@H](Cc1ccc2c(-c3ccc(F)cc3Cl)cc(=O)oc2c1)C(=O)N(C)C [Example 21, (R)-3-(4-(2-chloro-4-fluorophenyl)-2-oxo-2H-chromen-7-yl)-N,N,2-trimethylpropanamide]
The IC50 of the first is 24-fold lower: 2 µM for the first, 49 µM for the second.

`C[C@H](Cc1ccc2c(-c3ccc(F)cc3Cl)cc(=O)oc2c1)C(=O)N1CCCCC1` [Example 19, (R)-4-(2-chloro-4-fluorophenyl)-7-(2-methyl-3-oxo-3-(piperidin-1-yl)propyl)-2H-chromen-2-one] and `CCCNC(=O)c1ccc2c(-c3ccc(F)cc3Cl)cc(=O)oc2c1` [Example 22, 4-(2-chloro-4-fluorophenyl)-2-oxo-N-propyl-2H-chromene-7-carboxamide] are within 1.5-fold of each other in IC50: 24 µM for the first, 25 µM for the second.
